Test results as given in US7294651B2 (priority 2001, dated 2007).
Several values for one entry are separate records, joined by “and”; a condition that tells them apart may be missing. Equal values may be shown once.

Experiments:
[1] = tested on: S. aureus (MN8); format: cell-based
[2] = tested on: TSST-1; format: cell-based, S. aureus; design: ng TSST-1 per CFU: scale not given here

Question: Which results are given for `CC(=O)/C=C/C1=C(C)CCCC1(C)C` [Beta-ionone]?
Answer: CFU/mL [1]: 1.8E+08 CFU/mL; Optical Density [1]: 0.688; Reduction of Toxin % [2]: 100%; ng TSST-1 per OD Unit [2]: none

Question: Which “effect on the growth of S. aureus cells” value [1] does the source give for `CC1CCC(C(C)C)C(O)C1` (centres unmarked) [Menthol, menthol] here?
Answer: minimal, if any, effect

Question: Which “CFU/mL × 10^8” value [1] does the source give for myreth-3-myristate [Cetiol] here?
Answer: 4.2 CFU/mL × 10^8 and 5.9 CFU/mL × 10^8 and 5.0 CFU/mL × 10^8

Question: What about the “ng TSST-1 per CFU” value [2] of the same molecule?
Answer: 371 and 196 and 200

Question: And the “ng TSST-1 per mL” value [2]?
Answer: 1556 ng TSST-1 per mL and 1147 ng TSST-1 per mL and 989 ng TSST-1 per mL
